{
  "source": "paper PMC9363195",
  "about": "“Preclinical Pharmacokinetics, Biodistribution, and Acute Toxicity Evaluation of Caerin 1.9 Peptide in Sprague Dawley Rats” (Evidence-based Complementary and Alternative Medicine : eCAM, 2022)",
  "type_in_all_cases": "in vivo, Sprague Dawley rats",
  "key": {"[1]": {"test_system": "SD rats", "experiment": "Histopathologic examination (H&E) of vital organs", "details": "s.c. 10.0 mg/kg daily x14 d", "from_the_text": "After blood was collected at the predetermined time points, all rats were euthanized and subjected to a comprehensive general autopsy, which included a thorough examination of the external surface of the body, all foramen, cranial cavity, external surface of the brain, chest, abdomen, pelvic cavity, viscera, cervix, and genitalia. The adrenal gland, brain (brain, cerebellum, and brain stem), epididymis, heart, kidney, liver, ovary, spleen, testis, thymus, thyroid gland, and uterus were carefully collected, weighed, and documented before being kept in 10% neutral formalin buffer (10% NBF).\nThe H&E staining was followed as reported elsewhere. Following formalin fixation, the important tissues were dehydrated, stained with hematoxylin (about 15 minutes) and eosin (1–3 minutes), dehydrated again with gradient alcohol, clarified in xylene, and then examined and recorded under the microscope."}, "[2]": {"experiment": "Tissue distribution of single subcutaneous injection of F3 (1.0 mg/kg)", "details": "LC-MS/MS; for F3 in tissue samples (heart, brain, liver, kidney, lung, spleen, stomach, small intestine, testis, ovaries, subcutaneous fat, skeletal muscle): single s.c. 1.0 mg/kg, 1, 2, 4, 8, 24, 48 h, LOQ in tissues 40–80 ng/g; for level at 4 h / level at 1 h / level at 2 h: Sprague-Dawley, rat, plasma, sc, n=3, read-out: F3 concentration in plasma; for level at 4 h: 4th hr; for level at 1 h: 1 hour after administration; for level at 2 h: mean", "method": "The concentration of F3 in rat plasma was determined by liquid chromatography-tandem mass spectrometry, using the method established by Kanglong Huacheng Co., Ltd. The analyte was assayed by liquid chromatography coupled with the tandem mass spectrometry (LC-MS/MS) method. The LC-MS/MS system consisted of a Shimadzu HPLC system (Kyoto, Japan) and an LCMS-8060 instrument (serial no. 011105500332 AE). The following were the LC conditions: column, HALO ES-C18 2.7 µ C18 160A (50 × 2.1 mm); gradient elution at 0.5 mL/min with 5% acetonitrile in water containing 0.1% formic acid or 95% acetonitrile in water containing 0.1% formic acid; and injection volume of 10 µL. A multiple reaction monitoring (MRM) method was selected for quantitative analysis. For analyte and internal standard, the optimum transitions were 519.50 > 129.15 (five charges) and 649.15 > 120.10 (four charges), 393.20 > 373.25, and 237.15 > 194.15, respectively. The instrumental parameters were set as follows: nebulizing gas flow was 3 L/min; heating gas flow was 10 L/min; interface temperature was 300°C; DL temperature was 250°C; and heat block temperature was 400°C.\nThirty-six SD rats (18 females, 18 males) were randomly selected and given a single subcutaneous injection of F3 at 1.0 mg/kg. Tissue samples were collected at 1, 2, 4, 8, 24, and 48 hours after F3 administration. At each time point, six rats (3 of each sex) were sacrificed. At least 0.5 ml of whole blood was collected before euthanasia, and 0.5–1.0 g of tissue was collected after euthanasia. The heart, brain, liver, kidney, lung, spleen, stomach, small intestine, testis, ovary, subcutaneous fat, and skeletal muscle were among the tissue types studied.\nThe desired serial concentrations of working solutions were achieved by diluting stock solution (1 mg/mL in DMSO) of analyte with 50% acetonitrile in water. 5 μL of working solutions (10 to 10000 ng/mL) were added to 50 μL of the blank rat plasma and tissues to achieve calibration standards or quality control (QC) samples of 1 to 1000 ng/mL in a total volume of 55 μL.\nThe resulting standard, QC, or study samples were added to 200 μL of methanol containing IS (50 ng/mL dexamethasone, 2 ng/mL verapamil and 2 ng/mL carbamazepine as internal standard (IS) for protein precipitation. All samples were then vortexed for 30 seconds. After centrifugation at 4°C and 4000 rpm (ca. 3740 x g) for 15 minutes, 100 µL of the supernatant was diluted with 200 µL of water for injection on LC-MS/MS."}, "[3]": {"test_system": "SD rats", "experiment": "Functional observation (mortality, clinical signs) in acute toxicity study", "details": "for mortality: single s.c. 1.0, 10.0, 100 mg/kg or 10.0 mg/kg daily x14 d, cage observation", "method": "The mortality, general health status, and toxic reaction symptoms of the experimental groups were documented. Before the first day of F3 administration and during the experiments, a detailed clinical observation was carried out and recorded the changes in skin, eyes and mucous membrane, respiratory system, nervous system, activity, and behaviors of the rats. The body weight was measured and recorded before the first day of administration.\nForty SD rats (20 males and 20 females) were randomly divided into 4 groups (Figure 1). All rats were given F3 once on the day of the experiment.\nTwelve SD rats (6 males, 6 females) were given a daily subcutaneous injection of F3 at a dose of 10.0 mg/kg for consecutive 14 days. The first day of administration was recorded as day 1."}, "[4]": {"details": "female SD rats, single s.c. 1.0 mg/kg"}, "[5]": {"details": "male SD rats, single s.c. 1.0 mg/kg"}},
  "note": "“Also recorded” adds a separate entry of the source. Where two headings read alike, the source gives them in different places. Peptide text beside a SMILES is read from it.",
  "data": [
    {"smiles": "CC[C@H](C)[C@H](NC(=O)[C@H](CO)NC(=O)CNC(=O)[C@H](CC(C)C)NC(=O)[C@@H](NC(=O)CNC(=O)[C@H](Cc1ccccc1)NC(=O)[C@H](CC(C)C)NC(=O)CN)C(C)C)C(=O)N[C@@H](C)C(=O)N[C@@H](CCCCN)C(=O)N[C@@H](Cc1c[nH]cn1)C(=O)N[C@H](C(=O)N[C@@H](CC(C)C)C(=O)N1CCC[C@H]1C(=O)N[C@@H](Cc1c[nH]cn1)C(=O)N[C@H](C(=O)N[C@H](C(=O)N1CCC[C@H]1C(=O)N[C@H](C(=O)N[C@H](C(=O)N[C@@H](C)C(=O)N[C@@H](CCC(=O)O)C(=O)N[C@@H](CCCCN)C(=O)N[C@@H](CC(C)C)C(N)=O)[C@@H](C)CC)C(C)C)C(C)C)C(C)C)C(C)C", "note": "[F3, Caerin 1.9] (H-GLFGVLGSIAKHVLPHVVPVIAEKL-NH2)", "values": [
      {"measurement": "histopathologic examination of essential organs", "setting": "[1]", "result": "no apparent abnormalities"},
      {"measurement": "F3 in tissue samples (heart, brain, liver, kidney, lung, spleen, stomach, small intestine, testis, ovaries, subcutaneous fat, skeletal muscle)", "setting": "[2]; SD rats, 1 mg/kg", "result": "No detectable F3"},
      {"measurement": "F3 in tissue samples (heart, brain, liver, kidney, lung, spleen, stomach, small intestine, testis, ovaries, subcutaneous fat, skeletal muscle)", "setting": "[2]; SD rats, listed as Caerin 1.9, 1 mg/kg", "result": "< 40", "unit": "ng/g"},
      {"measurement": "F3 in plasma samples collected at other time points", "setting": "[2]; SD rats, single s.c. 1.0 mg/kg, time points other than 1, 2, 4 h (8, 24, 48 h)", "result": "No detectable F3"},
      {"measurement": "level at 4 h", "setting": "[2]; [4]", "result": "19.4 ± 5.96", "unit": "ng/mL"},
      {"measurement": "level at 1 h", "setting": "[2]; [4]", "result": "174 ± 43", "unit": "ng/mL"},
      {"measurement": "level at 2 h", "setting": "[2]; [4]", "result": "49.7 ± 1.71", "unit": "ng/mL"},
      {"measurement": "level at 4 h", "setting": "[2]; [5]", "result": "20 ± 9.73", "unit": "ng/mL"},
      {"measurement": "level at 1 h", "setting": "[2]; [5]", "result": "165 ± 46.5", "unit": "ng/mL"},
      {"measurement": "level at 2 h", "setting": "[2]; [5]", "result": "104 ± 25.5", "unit": "ng/mL"},
      {"measurement": "clinical observation: scabs at the injection site", "setting": "[3]; s.c. 10.0 mg/kg daily x14 d, 6 M/6 F", "result": "scabs were discovered at the injection site in one female rat, three female rats, and two male rats on the 8th, 12th, and 15th days, respectively"},
      {"measurement": "clinical observation (fur, eyes, mucosa, respiratory, circulatory, nervous system, behaviors)", "setting": "[3]; single s.c. 1.0 mg/kg or 10.0 mg/kg", "result": "no abnormalities"},
      {"measurement": "clinical observation: dorsal scabs", "setting": "[3]; single s.c. 100.0 mg/kg, 5 M/5 F", "result": "one male and two female rats on day 8 and two female rats on day 15 developed dorsal scabs"},
      {"measurement": "mortality", "setting": "[3]", "result": "no rats receiving F3 were found dead or dying; also recorded: No dead or dying rats were observed"},
      {"measurement": "mortality", "setting": "[3]; listed as Caerin 1.9", "result": "does not cause mortality or organ malfunction"}
    ]}
  ]
}
